This is an account of results in publication PMC10176470, “Engaging a Non-catalytic Cysteine Residue Drives Potent and Selective Inhibition of Caspase-6” (Journal of the American Chemical Society, 2023).

Assay type in all cases: cell-based
Assay [1] addresses T1, proteins of HEK293T cells transiently overexpressing caspase-6 (Homo sapiens, UniProt O95197).
T1 sequence (O95197 1-1032): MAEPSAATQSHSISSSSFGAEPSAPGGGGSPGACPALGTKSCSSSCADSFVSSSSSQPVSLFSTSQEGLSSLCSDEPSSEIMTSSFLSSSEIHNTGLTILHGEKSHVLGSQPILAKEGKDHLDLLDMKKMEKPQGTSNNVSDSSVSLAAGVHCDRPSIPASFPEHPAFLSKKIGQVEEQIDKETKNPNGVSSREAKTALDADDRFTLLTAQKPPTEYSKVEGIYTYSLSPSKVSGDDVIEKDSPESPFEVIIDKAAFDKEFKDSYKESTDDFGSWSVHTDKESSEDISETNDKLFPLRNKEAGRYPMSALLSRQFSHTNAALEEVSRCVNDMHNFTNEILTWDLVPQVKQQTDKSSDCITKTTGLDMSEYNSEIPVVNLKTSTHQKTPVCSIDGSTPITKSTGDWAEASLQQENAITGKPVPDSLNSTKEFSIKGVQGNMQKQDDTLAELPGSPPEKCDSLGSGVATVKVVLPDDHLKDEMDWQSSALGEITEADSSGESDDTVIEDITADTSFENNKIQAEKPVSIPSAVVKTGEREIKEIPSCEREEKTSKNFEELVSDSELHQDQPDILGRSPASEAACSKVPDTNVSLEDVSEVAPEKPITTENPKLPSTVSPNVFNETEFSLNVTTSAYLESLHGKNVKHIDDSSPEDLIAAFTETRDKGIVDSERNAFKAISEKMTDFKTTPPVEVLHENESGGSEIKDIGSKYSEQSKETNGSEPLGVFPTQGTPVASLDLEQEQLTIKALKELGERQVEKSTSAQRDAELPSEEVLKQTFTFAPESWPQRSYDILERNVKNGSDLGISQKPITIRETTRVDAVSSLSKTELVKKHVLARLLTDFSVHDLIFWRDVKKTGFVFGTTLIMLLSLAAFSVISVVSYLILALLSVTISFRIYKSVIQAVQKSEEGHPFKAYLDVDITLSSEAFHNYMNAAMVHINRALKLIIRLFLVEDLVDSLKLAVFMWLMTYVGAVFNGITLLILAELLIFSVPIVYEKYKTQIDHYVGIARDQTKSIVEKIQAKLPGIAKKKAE
As to conditions: protein RTN3 (O95197).

The target of assay [2] is proteins of HEK293T cells transiently overexpressing caspase-6 (Homo sapiens, UniProt P02533). The note with it: Probe; protein KRT14 P02533.
Chain of proteins of HEK293T cells transiently overexpressing caspase-6 (Homo sapiens, UniProt P02533) (P02533 whole entry): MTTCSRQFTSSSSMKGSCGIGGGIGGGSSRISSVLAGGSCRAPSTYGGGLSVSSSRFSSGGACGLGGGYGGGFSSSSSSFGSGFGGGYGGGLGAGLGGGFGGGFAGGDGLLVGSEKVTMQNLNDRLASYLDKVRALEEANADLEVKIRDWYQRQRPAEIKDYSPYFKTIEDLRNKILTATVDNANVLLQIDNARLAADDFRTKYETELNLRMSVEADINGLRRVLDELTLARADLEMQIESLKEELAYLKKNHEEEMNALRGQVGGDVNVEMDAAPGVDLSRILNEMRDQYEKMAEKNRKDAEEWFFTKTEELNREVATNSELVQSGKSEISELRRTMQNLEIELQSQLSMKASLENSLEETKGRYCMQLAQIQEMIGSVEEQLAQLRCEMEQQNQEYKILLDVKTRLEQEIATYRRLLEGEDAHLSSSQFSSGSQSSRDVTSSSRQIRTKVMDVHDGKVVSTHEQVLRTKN
Assay [3] concerns the target proteins of HEK293T cells transiently overexpressing caspase-6 (Homo sapiens, UniProt P06748). The note with it: protein NPM1 (P06748).
Assay [4] has as its target proteins of HEK293T cells transiently overexpressing caspase-6 (Homo sapiens, UniProt P21796). As to conditions: Probe; protein VDAC1 P21796.
Assay [5] deals with proteins of HEK293T cells transiently overexpressing caspase-6 (Homo sapiens, UniProt P26639). The note with it: exp_ref Probe; protein TARS (P26639); analysis C6.
Chain of proteins of HEK293T cells transiently overexpressing caspase-6 (Homo sapiens, UniProt P26639) (P26639 whole entry): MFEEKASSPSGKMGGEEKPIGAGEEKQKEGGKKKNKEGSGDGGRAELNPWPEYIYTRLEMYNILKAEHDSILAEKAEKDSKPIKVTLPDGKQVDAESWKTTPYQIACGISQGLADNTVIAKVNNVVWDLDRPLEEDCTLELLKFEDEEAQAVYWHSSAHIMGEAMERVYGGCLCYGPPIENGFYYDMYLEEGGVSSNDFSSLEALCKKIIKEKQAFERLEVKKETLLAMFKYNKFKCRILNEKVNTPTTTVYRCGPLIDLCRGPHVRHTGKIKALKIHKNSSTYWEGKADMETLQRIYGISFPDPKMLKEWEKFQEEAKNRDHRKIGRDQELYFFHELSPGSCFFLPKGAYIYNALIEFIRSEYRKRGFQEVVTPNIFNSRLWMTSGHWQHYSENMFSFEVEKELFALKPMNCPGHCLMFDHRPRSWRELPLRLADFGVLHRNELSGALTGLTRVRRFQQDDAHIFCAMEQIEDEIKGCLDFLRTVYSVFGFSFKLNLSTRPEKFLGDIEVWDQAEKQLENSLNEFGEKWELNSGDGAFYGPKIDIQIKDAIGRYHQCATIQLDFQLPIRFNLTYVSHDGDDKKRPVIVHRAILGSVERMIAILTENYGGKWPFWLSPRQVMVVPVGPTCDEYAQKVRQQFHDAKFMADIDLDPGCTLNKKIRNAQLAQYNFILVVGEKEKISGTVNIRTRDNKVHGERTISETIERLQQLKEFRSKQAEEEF
Assay [6] has as its target proteins of HEK293T cells transiently overexpressing caspase-6 (Homo sapiens, UniProt P33993). The note with it: Probe; protein MCM7 P33993.
The target of assay [7] is proteins of HEK293T cells transiently overexpressing caspase-6 (Homo sapiens, UniProt P40227). The note with it: exp_ref Probe; protein CCT6A (P40227); analysis C6.
Assay [8] addresses proteins of HEK293T cells transiently overexpressing caspase-6 (Homo sapiens, UniProt P46379). The note with it: exp_ref Probe; protein BAG6 (P46379); analysis C6.
Assay [9] has as its target proteins of HEK293T cells transiently overexpressing caspase-6 (Homo sapiens, UniProt P48643). As to conditions: protein CCT5 (P48643).
Assay [10] has as its target proteins of HEK293T cells transiently overexpressing caspase-6 (Homo sapiens, UniProt P49368). As to conditions: exp_ref Probe; protein CCT3 (P49368); analysis C6.
Assay [11] addresses proteins of HEK293T cells transiently overexpressing caspase-6 (Homo sapiens, UniProt P54886). The note with it: exp_ref Probe; protein ALDH18A1 (P54886); analysis C6.
Assay [12] deals with proteins of HEK293T cells transiently overexpressing caspase-6 (Homo sapiens, UniProt Q02543). As to conditions: exp_ref Probe; protein RPL18A (Q02543); analysis C6.
In assay [13] the target is proteins of HEK293T cells transiently overexpressing caspase-6 (Homo sapiens, UniProt Q13428). The note with it: exp_ref Probe; protein TCOF1 (Q13428); analysis C6.
For assay [14], the target named is proteins of HEK293T cells transiently overexpressing caspase-6 (Homo sapiens, UniProt Q14166). The note with it: exp_ref Probe; protein TTLL12 (Q14166); analysis C6.
Chain of proteins of HEK293T cells transiently overexpressing caspase-6 (Homo sapiens, UniProt Q14166) (Q14166 whole entry): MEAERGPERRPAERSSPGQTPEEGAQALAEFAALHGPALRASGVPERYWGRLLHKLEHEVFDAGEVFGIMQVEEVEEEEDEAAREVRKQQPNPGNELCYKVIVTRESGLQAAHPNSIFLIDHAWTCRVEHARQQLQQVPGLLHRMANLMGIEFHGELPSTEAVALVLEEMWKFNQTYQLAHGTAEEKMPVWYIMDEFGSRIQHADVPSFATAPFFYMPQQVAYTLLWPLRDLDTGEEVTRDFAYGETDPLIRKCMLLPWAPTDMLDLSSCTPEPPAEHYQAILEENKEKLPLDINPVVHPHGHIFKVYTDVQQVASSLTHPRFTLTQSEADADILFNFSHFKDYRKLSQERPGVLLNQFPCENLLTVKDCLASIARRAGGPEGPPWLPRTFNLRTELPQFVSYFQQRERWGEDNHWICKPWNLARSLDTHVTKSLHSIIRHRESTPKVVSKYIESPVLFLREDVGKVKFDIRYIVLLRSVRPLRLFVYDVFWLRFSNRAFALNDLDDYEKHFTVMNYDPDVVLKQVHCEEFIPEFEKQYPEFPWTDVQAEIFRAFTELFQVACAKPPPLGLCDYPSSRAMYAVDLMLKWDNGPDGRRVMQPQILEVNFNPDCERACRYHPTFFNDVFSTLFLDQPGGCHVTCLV
The target in assay [15] is proteins of HEK293T cells transiently overexpressing caspase-6 (Homo sapiens, UniProt Q9Y617). The note with it: Probe; protein PSAT1 Q9Y617.
Chain of proteins of HEK293T cells transiently overexpressing caspase-6 (Homo sapiens, UniProt Q9Y617) (Q9Y617 whole entry): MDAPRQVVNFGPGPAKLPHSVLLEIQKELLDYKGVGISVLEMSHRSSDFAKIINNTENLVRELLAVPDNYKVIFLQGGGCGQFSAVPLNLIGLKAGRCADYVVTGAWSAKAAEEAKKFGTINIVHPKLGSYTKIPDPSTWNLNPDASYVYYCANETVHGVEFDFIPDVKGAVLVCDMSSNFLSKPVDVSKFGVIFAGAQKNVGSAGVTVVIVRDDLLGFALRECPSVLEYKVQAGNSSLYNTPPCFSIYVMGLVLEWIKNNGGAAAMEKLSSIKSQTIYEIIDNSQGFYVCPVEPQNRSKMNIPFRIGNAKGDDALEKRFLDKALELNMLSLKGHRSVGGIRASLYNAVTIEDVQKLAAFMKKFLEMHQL
Assay [16] deals with proteins of HEK293T cells transiently overexpressing caspase-6. As to conditions: exp_ref Probe; protein CBSL (P0DN79); analysis C6.

SMILES strings stand for the structures. Where two headings read alike, the source gives them in different places.

Chain of proteins of HEK293T cells transiently overexpressing caspase-6 (Homo sapiens, UniProt P06748) (P06748 whole entry): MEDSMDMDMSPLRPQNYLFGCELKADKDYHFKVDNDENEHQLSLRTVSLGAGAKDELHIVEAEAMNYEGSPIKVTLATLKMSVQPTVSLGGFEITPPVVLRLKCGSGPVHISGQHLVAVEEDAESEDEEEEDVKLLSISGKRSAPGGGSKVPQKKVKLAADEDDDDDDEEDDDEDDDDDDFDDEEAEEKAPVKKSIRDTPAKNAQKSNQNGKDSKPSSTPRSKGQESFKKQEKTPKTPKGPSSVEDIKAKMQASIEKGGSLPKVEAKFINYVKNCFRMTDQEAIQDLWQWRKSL
Chain of proteins of HEK293T cells transiently overexpressing caspase-6 (Homo sapiens, UniProt P48643) (P48643 whole entry): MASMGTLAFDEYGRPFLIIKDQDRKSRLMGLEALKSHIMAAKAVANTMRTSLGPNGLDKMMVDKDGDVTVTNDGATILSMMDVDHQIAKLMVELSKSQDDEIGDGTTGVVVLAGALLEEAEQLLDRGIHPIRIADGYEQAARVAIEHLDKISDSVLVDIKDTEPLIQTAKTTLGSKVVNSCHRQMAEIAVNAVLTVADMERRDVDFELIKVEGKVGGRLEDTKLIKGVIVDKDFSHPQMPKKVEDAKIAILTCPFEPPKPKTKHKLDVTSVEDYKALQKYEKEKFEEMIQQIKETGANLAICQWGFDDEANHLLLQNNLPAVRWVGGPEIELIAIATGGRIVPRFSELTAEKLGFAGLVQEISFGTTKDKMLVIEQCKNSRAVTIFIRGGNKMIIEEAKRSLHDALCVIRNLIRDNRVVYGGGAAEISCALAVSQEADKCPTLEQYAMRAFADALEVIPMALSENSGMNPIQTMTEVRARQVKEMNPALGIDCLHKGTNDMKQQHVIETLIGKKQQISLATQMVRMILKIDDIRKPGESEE
Chain of proteins of HEK293T cells transiently overexpressing caspase-6 (Homo sapiens, UniProt P49368) (P49368 whole entry): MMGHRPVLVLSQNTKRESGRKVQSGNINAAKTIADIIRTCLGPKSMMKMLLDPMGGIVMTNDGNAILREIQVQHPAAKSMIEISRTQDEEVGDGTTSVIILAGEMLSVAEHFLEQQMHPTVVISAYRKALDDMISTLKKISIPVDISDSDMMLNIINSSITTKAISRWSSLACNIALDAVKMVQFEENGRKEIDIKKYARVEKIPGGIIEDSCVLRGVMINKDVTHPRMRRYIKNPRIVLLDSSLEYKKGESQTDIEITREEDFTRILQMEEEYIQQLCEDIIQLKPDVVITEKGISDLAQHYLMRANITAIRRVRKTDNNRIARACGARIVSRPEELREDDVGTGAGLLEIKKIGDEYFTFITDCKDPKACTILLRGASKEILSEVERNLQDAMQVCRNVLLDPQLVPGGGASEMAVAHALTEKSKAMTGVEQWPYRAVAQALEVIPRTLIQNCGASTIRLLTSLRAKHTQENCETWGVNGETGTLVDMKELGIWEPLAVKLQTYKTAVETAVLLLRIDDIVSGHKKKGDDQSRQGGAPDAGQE
Chain of proteins of HEK293T cells transiently overexpressing caspase-6 (Homo sapiens, UniProt P21796) (P21796 whole entry): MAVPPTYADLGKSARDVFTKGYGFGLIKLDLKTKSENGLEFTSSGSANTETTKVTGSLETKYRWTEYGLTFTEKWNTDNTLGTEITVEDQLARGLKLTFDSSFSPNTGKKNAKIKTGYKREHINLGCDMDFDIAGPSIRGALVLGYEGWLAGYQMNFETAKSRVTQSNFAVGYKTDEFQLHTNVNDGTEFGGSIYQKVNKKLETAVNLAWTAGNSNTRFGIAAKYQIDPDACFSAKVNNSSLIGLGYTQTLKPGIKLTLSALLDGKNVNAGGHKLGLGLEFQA
Chain of proteins of HEK293T cells transiently overexpressing caspase-6 (Homo sapiens, UniProt P46379) (P46379 whole entry): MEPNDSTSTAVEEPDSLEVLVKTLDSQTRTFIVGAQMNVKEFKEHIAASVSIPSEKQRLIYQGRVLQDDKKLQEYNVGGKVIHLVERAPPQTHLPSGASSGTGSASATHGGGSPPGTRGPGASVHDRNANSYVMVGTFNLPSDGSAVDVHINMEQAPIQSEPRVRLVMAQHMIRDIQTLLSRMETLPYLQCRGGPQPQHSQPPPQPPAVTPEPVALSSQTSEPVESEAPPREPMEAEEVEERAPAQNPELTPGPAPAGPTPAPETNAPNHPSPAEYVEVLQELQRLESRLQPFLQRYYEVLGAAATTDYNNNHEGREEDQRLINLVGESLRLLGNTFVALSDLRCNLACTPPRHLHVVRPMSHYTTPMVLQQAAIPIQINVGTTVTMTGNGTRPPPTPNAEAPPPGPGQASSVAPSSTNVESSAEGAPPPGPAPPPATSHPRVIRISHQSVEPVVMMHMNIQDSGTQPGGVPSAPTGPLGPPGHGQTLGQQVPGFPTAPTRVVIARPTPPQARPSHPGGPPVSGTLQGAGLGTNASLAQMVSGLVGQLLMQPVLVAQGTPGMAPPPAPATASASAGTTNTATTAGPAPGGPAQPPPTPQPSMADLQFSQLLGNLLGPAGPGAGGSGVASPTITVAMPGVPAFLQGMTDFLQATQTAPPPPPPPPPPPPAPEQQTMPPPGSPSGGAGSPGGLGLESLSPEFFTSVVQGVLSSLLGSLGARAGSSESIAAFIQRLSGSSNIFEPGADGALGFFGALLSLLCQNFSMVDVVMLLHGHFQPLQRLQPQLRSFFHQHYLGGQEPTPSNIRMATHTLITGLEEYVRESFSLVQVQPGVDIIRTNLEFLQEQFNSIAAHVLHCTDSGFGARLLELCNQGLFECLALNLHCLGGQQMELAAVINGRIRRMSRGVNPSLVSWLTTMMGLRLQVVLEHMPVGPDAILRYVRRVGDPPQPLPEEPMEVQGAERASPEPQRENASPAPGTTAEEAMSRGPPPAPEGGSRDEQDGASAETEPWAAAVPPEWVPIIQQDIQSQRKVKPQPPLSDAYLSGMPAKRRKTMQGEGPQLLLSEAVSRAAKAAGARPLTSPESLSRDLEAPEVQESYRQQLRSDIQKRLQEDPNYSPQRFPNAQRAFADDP

With `C#CCOc1ccc([C@@H]2C[C@@H](C(=O)Nc3ccc(OC(F)(F)F)cc3)CN(S(=O)(=O)C=C)C2)cc1` (relative stereo) [13-t], the enrich.exp.med.lin amounted to 5.629 in assay [1]; 5.629 in assay [1] (Expt Probe, analysis C6); 0.7615 in [3]; 1.665 in assay [9]. The enrich.exp.med.log2 is reported as 2.493 in assay [1]; 2.493 in assay [1] (Expt Probe, analysis C6); -0.3931 in assay [3]; 0.7352 in [9]. For the same compound, the enrich.exp.med in assay [1] (exp_ref Probe, analysis C6) was 2.493; in assay [2], -2.018; in assay [3] (exp_ref Probe, analysis C6) it was -0.3931; in [4] it was -1.18; in assay [5], 0.1344; in [6], -1.046. For the same compound, the enrich.exp.med in assay [7] is 0.2516; in assay [8], 0.9575; in assay [9] (exp_ref Probe, analysis C6), 0.7352; in [10], 0.6394; in assay [11], 0.3406; in assay [12], -0.1551. Also, the enrich.exp.med in assay [13] is listed as 0.9444; in assay [14], -0.1545; in [15] it was -1.015; in assay [16], -0.1387.
